This note sets out measurements from patent US7291611B2, “Benzimidazolidinone derivatives as muscarinic agents” (ACADIA Pharmaceuticals Inc., priority 2001, dated 2007).

Experiment [1] deals with T1, M1 muscarinic receptor (Homo sapiens, UniProt P11229).
T1 construct: expressed in transfected cells; host or cells: NIH-3T3 cells (ATCC CRL 1658)
T1 sequence (P11229 1-460): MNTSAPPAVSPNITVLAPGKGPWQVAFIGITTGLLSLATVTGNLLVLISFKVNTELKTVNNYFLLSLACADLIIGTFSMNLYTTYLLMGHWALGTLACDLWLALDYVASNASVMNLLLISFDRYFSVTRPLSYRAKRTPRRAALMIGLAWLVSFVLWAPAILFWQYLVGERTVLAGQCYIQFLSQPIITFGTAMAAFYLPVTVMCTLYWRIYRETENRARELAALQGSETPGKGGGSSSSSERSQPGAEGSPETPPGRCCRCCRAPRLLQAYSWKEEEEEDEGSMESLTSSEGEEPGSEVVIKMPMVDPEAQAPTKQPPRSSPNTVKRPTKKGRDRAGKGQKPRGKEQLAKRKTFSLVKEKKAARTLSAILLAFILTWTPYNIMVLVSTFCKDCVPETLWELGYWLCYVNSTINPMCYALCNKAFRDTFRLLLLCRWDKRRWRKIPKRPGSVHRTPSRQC
Nature of the experiment: R-SAT functional assay, muscarinic M1 receptor. The experiment is classed as cell-based. The conditions noted are these: for Emax: NIH3T3, relative to maximum response to carbachol, read-out: M1 % Efficacy; for Emax / EC50: R-SAT, transfected NIH-3T3 cells; for EC50: read-out: M1 pEC50 (converted). How it is done:
(§1) The M1 and M4 muscarinic receptor subtypes were cloned substantially as described by Bonner et al., (1987) Science […] p. 527 and Bonner et al, (1988) Neuron 1, p. 403. R-SAT assays were carried out substantially as described in U.S. Pat. No. 5,707,798 and by Braüner-Osbome, H. B. and Brann, M. R. (1995), Eur. J. Pharmacol. 295:93-102. NIH-3T3 cells (available from the American Type Culture Collection as ATCC CRL 1658) were transfected with plasmid DNA encoding the m1 and m4 receptors and plasmid DNA encoding β-galactosidase. Transfected cells were grown in the presence of between 1 nM and 40 μM of the test compound for 5 days. On day 5, the cells were lysed using 0.5% nonidet-P and β-galactosidase expression was quantified using the chromogenic substrate o-nitrophenyl-p-D-galactoside (ONGP).
(§2) Data were normalized relative to the maximum response of the cells to the muscarinic agonist carbachol, and the following equation was fitted to the data: response=minimum+(maximum−minimum)/(1+([ligand]/EC50)) % Efficacy was defined as (maximum−minimum)/(maximum response of cells to carbachol). pEC50=−log (EC50). Where data gave a bell-shaped curve, “maximum” was defined as the highest observed response.

Experiment [2] addresses T2, M4 muscarinic receptor (Homo sapiens, UniProt P08173).
T2 construct: expressed in transfected cells; host or cells: NIH-3T3 cells (ATCC CRL 1658)
T2 sequence (P08173 1-479): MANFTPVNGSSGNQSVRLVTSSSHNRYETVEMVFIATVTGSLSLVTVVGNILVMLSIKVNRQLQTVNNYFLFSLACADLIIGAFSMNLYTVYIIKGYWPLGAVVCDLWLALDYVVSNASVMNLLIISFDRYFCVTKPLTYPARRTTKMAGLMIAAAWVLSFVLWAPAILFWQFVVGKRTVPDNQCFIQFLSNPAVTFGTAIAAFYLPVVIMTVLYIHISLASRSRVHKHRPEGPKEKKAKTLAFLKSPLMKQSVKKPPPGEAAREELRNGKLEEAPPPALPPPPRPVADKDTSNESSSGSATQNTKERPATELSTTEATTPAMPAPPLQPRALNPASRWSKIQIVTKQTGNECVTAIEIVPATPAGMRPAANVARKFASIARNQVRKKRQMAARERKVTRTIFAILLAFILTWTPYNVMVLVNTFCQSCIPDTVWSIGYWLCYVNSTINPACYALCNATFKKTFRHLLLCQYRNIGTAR
Nature of the experiment: R-SAT functional assay, muscarinic M4 receptor. It is filed as cell-based. The conditions noted are these: for Emax: NIH3T3, relative to maximum response to carbachol, read-out: M4 % Efficacy; for Emax / EC50: R-SAT, transfected NIH-3T3 cells; for EC50: read-out: M4 pEC50 (converted). How it is done: as §1, §2

Experiment [3] addresses T3, human dopamine D2 receptor (Homo sapiens, UniProt P14416).
T3 construct: expressed in transfected cells; host or cells: tSA cells
In words: [3H]-Spiperone radioligand binding to D2 receptor membranes. The conditions noted are these: tSA cell membranes, 150 pM [3H]-Spiperone; read-out: D2 [3H]Spiperone pIC50 (converted). How it is done:
The D2 dopamine receptor subtype was cloned substantially as described by Stormann, Gdula, Weiner and Brann, 1990 [Mol Pharmacol 37, 1-6]. Cell membranes expressing the D2 receptor were prepared by transfecting tSA cells (Chahine, M., Bennet, P. B., George, A. L., Horn, R. (1994) Pfluegers Arch. 427, 136-142) with 10 μg plasmid DNA encoding the human dopamine D2 receptor and 40 μl Superfect (Qiagen). The cells were harvested 48 hours and transfection and membranes were prepared by homogenizing the cells using a Polytron harvester in 20 mM Hepes, 10 mM EDTA, pH 7.4. The homogenate was centrifuged for 30 minutes at 37,000 g. The pellet was homogenized again in 60 ml 20 mM Hepes, 5 mM EDTA. The homogenate was centrifuged for 30 minutes at 37,000 g. The supernatant was discarded. The pellet was homogenized again in 10 ml 20 mM Hepes, 1 mM EDTA. The resultant membranes were frozen at −80° C.
The membranes were combined with 150 pM [^3H]-Spiperone (Amersham-Pharmacia, 107 Ci/mmol) and ligand concentrations between 1 nM and 10 μM, or haloperidol concentrations between 0.1 nM and 1 μM in 460 μl 20 mM Hepes, 1 mM EDTA, 0.1% (w/v) bovine serum albumin. Nonspecific binding was defined as binding in the presence of 1 μM haloperidol. The membranes were incubated for 4 hours at 37° C., and then filtered onto Packard GFB Filterplates using a Packard harvester. The membranes were dried and 50 μl Microscint (Packard) was added to each well. The amount of bound radioligand was quantified using a Packard Topcount scintillation counter.
Data were normalized relative to the maximum inhibition of [^3H]-Spiperone binding by 1 μM haloperidol, and the following equation was fitted to the data: % inhibition=minimum+(maximum−minimum)/(1+([ligand]/[IC50])) % inhibition was defined as (maximum−minimum)/(maximum response of cells to haloperidol). pIC50=−log (IC50). NT=not tested. Results

T3 sequence (P14416 1-414 isoform P14416-2): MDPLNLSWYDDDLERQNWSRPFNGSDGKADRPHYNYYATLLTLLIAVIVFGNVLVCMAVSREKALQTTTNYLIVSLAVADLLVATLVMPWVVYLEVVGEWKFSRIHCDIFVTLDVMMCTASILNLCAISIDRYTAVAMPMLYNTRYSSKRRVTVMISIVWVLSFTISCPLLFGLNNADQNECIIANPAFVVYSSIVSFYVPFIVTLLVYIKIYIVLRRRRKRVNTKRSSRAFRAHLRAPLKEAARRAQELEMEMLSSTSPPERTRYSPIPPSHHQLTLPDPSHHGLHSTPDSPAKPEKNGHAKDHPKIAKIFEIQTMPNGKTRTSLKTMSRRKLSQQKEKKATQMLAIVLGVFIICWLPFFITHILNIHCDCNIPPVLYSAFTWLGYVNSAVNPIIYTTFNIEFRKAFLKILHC

For the molecule `CC(C)CC=C1CCN(CCCn2c(=O)[nH]c3ccccc32)CC1` [Compound 45NK-70, 1-{3-[4-(3-Methylbutylidene)piperidin-1-yl]propyl}-1,3-dihydrobenzoimidazol-2-one], in experiment [1], the “binding efficacy for the M1 receptor subtype” value is given as “high binding efficacy”, the Emax amounted to 70% and the EC50 is 50.1 nM. In addition, in experiment [2], the “binding efficacy for the M4 receptor subtype” value was “high binding efficacy”, the Emax was 40% and the EC50 was 79.4 nM. The IC50 in experiment [3] is 631 nM.
As to `CCCCCC1CCN(CCCn2c(=O)[nH]c3ccccc32)CC1` [Compound 45NK-71, 1-[3-(4-Pentylpiperidin-1-yl)propyl]-1,3-dihydrobenzoimidazol-2-one], in experiment [1], the “binding efficacy for the M1 receptor subtype” value is given as “high binding efficacy”, the Emax was 71% and the EC50 is 100 nM. Further, in experiment [2], the “binding efficacy for the M4 receptor subtype” value is on record as “high binding efficacy”, the Emax was 49% and the EC50 is 251 nM. For the same molecule, in experiment [3], the IC50 was 398 nM.
In the case of `CCCCC1CCN(CCCn2c(=O)n(C)c3ccccc32)CC1` [Compound 45NK-110, 1-[3-(4-Butylpiperidin-1-yl)propyl]-3-methyl-1,3-dihydrobenzoimidazol-2-one], in experiment [1], the “binding efficacy for the M1 receptor subtype” value is reported as “high binding efficacy”, the Emax turned out to be 89% and the EC50 is 100 nM. In experiment [2], the “binding efficacy for the M4 receptor subtype” value is listed as “high binding efficacy”, the Emax was determined as 61% and the EC50 is 1260 nM. Moreover, the IC50 in experiment [3] is 3160 nM.
For `CCCOC1CCN(CCCn2c(=O)sc3ccccc32)CC1` [Compound 61KS70-1, 3-[3-(4-Propoxy-piperidin-1-yl)-propyl]-3H-benzothiazol-2-one], in experiment [1], the Emax was 96% and the EC50 was 79.4 nM. In experiment [2], the Emax worked out at 112% and the EC50 was 794 nM. In addition, in experiment [3], the IC50 was 316 nM.
Take `CCCC=C1CCN(CCCn2c(=O)[nH]c3ccccc32)CC1` [Compound 61KS-12, 1-(3-[4-Butylidenepiperidino]propyl)-1,3-dihydrobenzimidazol-2-one]: in experiment [1], the “binding efficacy for the M1 receptor subtype” value is given as “high binding efficacy”, the Emax came to 107% and the EC50 was 31.6 nM. In addition, in experiment [2], the “binding efficacy for the M4 receptor subtype” value is on record as “high binding efficacy”, the Emax was 164% and the EC50 is 79.4 nM. The IC50 in experiment [3] was 1000 nM.
On to `CCCCC=C1CCN(CCCn2c(=O)[nH]c3ccccc32)CC1` [Compound 61KS-13, 1-(3-[4-Pentylidenepiperidino]propyl)-1,3-dihydrobenzimidazole-2-one], for which, in experiment [1], the “binding efficacy for the M1 receptor subtype” value was “high binding efficacy”, the Emax came to 106% and the EC50 was 39.8 nM. Also, in experiment [2], the “binding efficacy for the M4 receptor subtype” value is on record as “high binding efficacy”, the Emax worked out at 100% and the EC50 is 39.8 nM. Also, in experiment [3], the IC50 is 398 nM.
For `CCCCC1CCN(CCCn2c(=O)sc3ccccc32)CC1` [Compound 62KK040d, 3-[3-(4-Butylpiperidin-1-yl)propyl]-3H-benzothiazol-2-one], the results for the Emax in experiment [1] and in experiment [2] were 83% and 93%, respectively. The EC50 in experiment [1] is 25.1 nM; in experiment [2] it was 398 nM. In experiment [3], the IC50 is 79.4 nM.
Take `CCCCCC1CC2CCC(C1)N2CCCn1c(=O)sc2ccccc21` (stereo not drawn) [Compound 79KS97, 3-[3-(3-Pentyl-8-aza-bicyclo[3.2.1]oct-8-yl)-propyl]-3H-benzothiazol-2-one]: in experiment [1], the Emax worked out at 70% and the EC50 is 6.31 nM. For the same molecule, the IC50 in experiment [3] is 100 nM.
The corresponding values for `CCCCC1CCN(CCCN2C(=O)Cc3ccccc32)CC1` [Compound 85LM12, 1-(3-(4-Butylpiperidin-1-yl)propyl)-1,3-dihydro-indol-2-one] are 78%, 126 nM and 398 nM.
As to `CCCCC1CCN(CC(C)Cn2c(=O)sc3ccccc32)CC1` (stereo not drawn) [Compound 85LM14, 3-(3-(4-Butyl-piperidin-1-yl)-2-methyl-propyl)-3H-benzothiazol-2-one], in experiment [1], the Emax amounted to 104% and the EC50 is 31.6 nM. Besides, in experiment [2], the Emax is 94% and the EC50 was 1580 nM. Further, in experiment [3], the IC50 is 79.4 nM.
In the case of `CCCOC1CCN(CC(C)Cn2c(=O)sc3ccccc32)CC1` (stereo not drawn) [Compound 85LM49B, 3-(3-(4-Propoxy-piperidin-1-yl)-2-methyl-propyl)-3H-benzothiazol-2-one], in experiment [1], the Emax worked out at 98% and the EC50 is 25.1 nM.
On to `CCCCC1CCN(C[C@@H](C)Cn2c(=O)sc3ccccc32)CC1` [Compound 85LM91-78R, 3-(3-(4-Butylpiperidin-1-yl)-(R)-2-methylpropyl)-3H-benzothiazol-2-one], for which, in experiment [1], the Emax was 99% and the EC50 is 31.6 nM. Moreover, in experiment [2], the Emax worked out at 141% and the EC50 is 794 nM. Moreover, in experiment [3], the IC50 is 50.1 nM.
The corresponding values for `CCCCC1CCN(CCCn2c(=O)oc3ccc(F)cc32)CC1` [Compound 86KK22-K, 3-[3-(4-butylpiperidin-1-yl)propyl]-5-fluoro-3H-benzooxazol-2-one] are 75%, 200 nM, 56%, 1260 nM and 631 nM.
Regarding `CCCCC1CCN(CCCn2c(=O)oc3ccc(C)cc32)CC1` [Compound 86KKM25-d, 3-[3-(4-butylpiperidin-1-yl)propyl]-5-methyl-3H-benzooxazol-2-one], the Emax in experiment [1] worked out at 84%; in experiment [2] it was 63%. The values for the EC50 in experiment [1] and in experiment [2] were 100 nM and 794 nM, respectively.
As to `CCCCC1CCN(CCCn2c(=O)oc3cc(F)ccc32)CC1` [Compound 97KK28, 3-[3-(4-butylpiperidin-1-yl)propyl]-6-fluoro-3H-benzooxazol-2-one], in experiment [1], the Emax came to 71% and the EC50 is 200 nM. Further, the IC50 in experiment [3] was 251 nM.
